Measurements: US10537534B1, “Compositions and methods for treating skin conditions using visible light and resorcinols” (Johnson & Johnson Consumer Inc., priority 2019, dated 2020)

Legend:
C. acnes ATCC 6919 [1] = test: In vitro reduction of C. acnes by 4-hexylresorcinol with or without 440 nm blue light, colony count; format: cell-based, Cutibacterium acnes; settings: for Ave. Log Reduction ± S.D., arithmetic sum (expected additive): sum of light only and 0.002% 4-hexylresorcinol only
Protocol: (§1) A standard C. acnes ATCC 6919 culture is grown in Reinforced Clostridial Media (RCM) (Remel, Lenexa, Kans.). A suspension of C. acnes is adjusted to OD600=1.0 using a Spectromax M5 spectrophotometer (Molecular Devices, San Jose, Calif.) to yield a concentration of 10^8 cfu/ml. A 1:100 dilution of the standardized suspension is created to yield an inoculum concentration of 10^6 cfu/ml. Therefore, 100μl of inoculum into 100 μl of test sample yields 5×10^5 cfu/ml C. acnes within a 96-well experiment plate.
The culture is incubated in anaerobic chamber (<10 ppm O^2, 2.5-5% H^2, balance N^2 at 35±2° C.), in the dark, on an orbital shaker at 80 RPM. For test treatments including light, the prepared C. acnes culture is exposed for two, 60-minute light cycles with a 60-minute hold time between. Each light cycle is with blue light at wavelength 440 nm and 22±2 mW/cm^2 intensity. After treatments, the sample is incubated overnight (16±2 hours) in an anaerobic chamber. The sample is then recovered onto agar and incubated 5-7 days until clear colonies are visible. After growth, the remaining viable C. acnes colonies are counted; converted to cfu/ml and the log 10 reduction in number of cells is calculated (log 10 reduction=no light control sample−test sample).
A C. acnes inoculum was prepared as set forth above and in the same manner as Example 1. The solution was stored at 4° C. until time of use. The stock solution was added to RCM to produce a final concentration of 0.01% (v/v) and inoculated with 0.1 mL of the C. acnes suspension to yield 10^6 cfu/ml. The prepared culture in RCM+ALA was incubated by shaking at 80 rpm, in the dark (foil covered), and in an anaerobic chamber at 35±2° C. for 24 hours.
A 0.02% (w/v) of n-4-hexylresorcinol (Alfa Aesar, Tewksbury, Mass.) was prepared in RCM. The sample stock solution was mixed as 1:10 (v/v) with 24-hour C. acnes culture in RCM+ALA. Organism control culture was diluted 1:10 (v/v) with RCM for equivalent organism concentration.
The in vitro evaluation was conducted as follows. The prepared C. acnes culture (grown with ALA) was mixed with the test sample as described above, added to 6-well plates and then exposed to two 60-minute, 440 nm blue light (22 mW) exposures, separated by one 60-minute rest period in the dark. Two samples were tested: 4-hexylresorcinol at 0.002% (v/v) and 24-hour C. acnes culture in RCM+ALA alone. A duplicate, 6-well plate was kept un-exposed to light as a control. All plates were incubated anaerobically, overnight, in the dark (foil covered), and in an anaerobic chamber at 35±2° C.
After 24-hour incubation, samples were serial diluted and plated onto Reinforced Clostridial Agar (Remel, Lenexa, Kans.). Agar plates were incubated anaerobically at 35±2° C. for 5-7 days until bacterial colonies were well-established. Then, colonies were counted and colony forming units (CFU) per ml were calculated. Statistically significant differences are defined by unshared letter groupings.

C. acnes ATCC 6919 [2] = test: Minimum inhibitory concentration (MIC) of 4-hexyl resorcinol against C. acnes growth, serial dilution in 96-well plate, visible turbidity; format: cell-based, Cutibacterium acnes; set-up: key: A “+” indicates growth; a “−” indicates no growth; settings: anaerobic, 3 days, 35° C.
Protocol: as §1
The minimum inhibitory concentration (MIC) of 4-hexyl resorcinol was determined to investigate its ability to inhibit the growth of C. acnes. All media and diluents were sterile. Aseptic techniques were used during study execution.
A C. acnes inoculum was prepared as set forth above.
A 0.1% (w/w) stock of 4-hexylresorcinol (Alfa Aesar, Tewksbury, Mass.) was made in RCM. Serial 1:2 dilutions were made in RCM across successive wells of a 96-well plate (sterile, u-bottom, untreated culture plate from Greiner Bio-one, Monroe, N.C.) to yield 10 test concentrations. After inoculation with equal volumes of C. acnes suspension, the test concentrations ranged from 0.05% through […] (v/v). Sterile RCM and 5×10^5 cfu/ml C. acnes in RCM were set up as a negative growth control and a positive growth control, respectively. Sterile 0.1% (w/w) 4-hexylresorcinol in RCM was set up as a turbidity control.
The 96-well plate was incubated anaerobically for 3 days at 35° C. The presence of visible turbidity within a challenged well was indicative of growth, while a clear well indicated no growth. The lowest concentration that inhibited C. acnes growth was determined to be the MIC. Negative growth control (not turbid) and positive growth control (turbid) results were as expected.

CCCCCCc1ccc(O)cc1O [4-hexylresorcinol]
Ave. Log Reduction ± S.D. (C. acnes ATCC 6919 [1]; 0.002% (v/v) 4-hexylresorcinol plus 440 nm blue light (22 mW), two 60-minute exposures, simultaneous): 4.84 log
Ave. Log Reduction ± S.D. (C. acnes ATCC 6919 [1]; 0.002% (v/v) 4-hexylresorcinol plus 440 nm blue light (22 mW), two 60-minute exposures, simultaneous, listed as HR): 4.84 ± 0.40 log
Ave. Log Reduction ± S.D. (C. acnes ATCC 6919 [1]; 0.002% (v/v) 4-hexylresorcinol treatment only, no light): 1.00 log
Ave. Log Reduction ± S.D. (C. acnes ATCC 6919 [1]; 0.002% (v/v) 4-hexylresorcinol treatment only, no light, listed as HR): 1.00 ± 0.55 log
Benefit from the synergistic combination over expected additive reduction (C. acnes ATCC 6919 [1]; light plus 0.002% 4-hexylresorcinol versus arithmetic sum): 100 fold
Ave. Log Reduction ± S.D., arithmetic sum (expected additive) (C. acnes ATCC 6919 [1]): 2.83 log
Ave. Log Reduction ± S.D., arithmetic sum (expected additive) (C. acnes ATCC 6919 [1]; listed as HR): 2.83 ± 1.08 log
Growth (C. acnes ATCC 6919 [2]; concentration 1.25E^−2 % v/v): −
Growth (C. acnes ATCC 6919 [2]; concentration 1.56E^−3 % v/v): −
Growth (C. acnes ATCC 6919 [2]; concentration 1.95E^−4 % v/v): +
Growth (C. acnes ATCC 6919 [2]; concentration 2.50E^−2 % v/v): −
Growth (C. acnes ATCC 6919 [2]; concentration 3.13E^−3 % v/v): −
Growth (C. acnes ATCC 6919 [2]; concentration 3.91E^−4 % v/v): +
Growth (C. acnes ATCC 6919 [2]; concentration 5.0E^−2 % v/v): −
Growth (C. acnes ATCC 6919 [2]; concentration 6.25E^−3 % v/v): −
Growth (C. acnes ATCC 6919 [2]; concentration 7.81E^−4 % v/v): +
Growth (C. acnes ATCC 6919 [2]; concentration 9.77E^−5 % v/v): +
